Measured values published in ChEMBL document CHEMBL5620401, “Design, synthesis, and biological evaluation of novel spirocyclic compounds as potential anti-glioblastoma agents” (Eur J Med Chem, 2023).
Blank lines part the entries; values can stand above or below the molecule they belong to. Activity calls are given as the source filed them. No cut-off for these calls is given here.

Columns and labels:
U-87 MG [1] = assay: Antiproliferative activity against human U87 cells assessed as cell viability measured after 72 hrs by MTT assay; type: functional, cell-based, U-87MG ATCC
U-251 [2] = assay: Antiproliferative activity against human U-251 cells assessed as cell viability measured after 72 hrs by MTT assay; type: functional, cell-based; details: U-251, 72 h
[3] = Permeability coefficient of compound by lipid-PAMPA assay; type: ADME; details: read-out: Peff
U-251 [4] = assay: Inhibition of colony formation in human U-251 cells; type: functional, cell-based
U-251 [5] = assay: Effect on ZBP1 protein expression in human U-251 cells at 1 to 5 uM measured after 48 hrs by Western blot analysis; type: functional, cell-based; details: dose 1-5 µM
U-251 [6] = assay: Effect on phosphorylated-[…] protein expression in human U-251 cells at 1 to 5 uM measured after 48 hrs by Western blot analysis; type: functional, cell-based; details: dose 1-5 µM
U-251 [7] = assay: Effect on RIPK3 protein expression in human U-251 cells at 1 to 5 uM measured after 48 hrs by Western blot analysis; type: functional, cell-based; details: dose 1-5 µM
U-251 [8] = assay: Effect on RIPK1 protein expression in human U-251 cells at 1 to 5 uM measured after 48 hrs by Western blot analysis; type: functional, cell-based; details: dose 1-5 µM
U-251 [9] = assay: Effect on caspase 8 protein expression in human U-251 cells at 1 to 5 uM measured after 48 hrs by Western blot analysis; type: functional, cell-based; details: dose 1-5 µM
U-251 [10] = assay: Effect on GSDMD protein expression in human U-251 cells at 1 to 5 uM measured after 48 hrs by Western blot analysis; type: functional, cell-based; details: dose 1-5 µM
U-251 [11] = assay: Induction of apoptosis in human U-251 cells assessed as increase in caspase-3 expression measured after 48 hrs by Western blot analysis; type: functional, cell-based; details: dose 1-5 µM
U-251 [12] = assay: Induction of apoptosis in human U-251 cells assessed as increase in BCL2 homologous antagonist/killer (Bak) expression measured after 48 hrs by Western blot analysis; type: functional, cell-based; details: dose 1-5 µM
U-251 [13] = assay: Induction of apoptosis in human U-251 cells assessed as increase in p53 expression measured after 48 hrs by Western blot analysis; type: functional, cell-based; details: dose 1-5 µM
U-251 [14] = assay: Induction of apoptosis in human U-251 cells assessed as necrotic cells at 5 uM measured after 48 hrs by Annexin V/PI analysis (reference value: 0%); type: functional
U-251 [15] = assay: Induction of apoptosis in human U-251 cells assessed as late apoptotic cells at 5 uM measured after 48 hrs by Annexin V/PI analysis (reference value: 0.7%); type: functional
U-251 [16] = assay: Induction of apoptosis in human U-251 cells assessed as early apoptotic cells at 5 uM measured after 48 hrs by Annexin V/PI analysis (reference value: 3.1%); type: functional
U-251 [17] = assay: Induction of apoptosis in human U-251 cells assessed as viable cells at 5 uM measured after 48 hrs by Annexin V/PI analysis (reference value: 96.2%); type: functional; details: read-out: Activity
U-251 [18] = assay: Induction of apoptosis in human U-251 cells assessed as necrotic cells at 2.5 uM measured after 48 hrs by Annexin V/PI analysis (reference value: 0%); type: functional
U-251 [19] = assay: Induction of apoptosis in human U-251 cells assessed as late apoptotic cells at 2.5 uM measured after 48 hrs by Annexin V/PI analysis (reference value: 0.7%); type: functional
U-251 [20] = assay: Induction of apoptosis in human U-251 cells assessed as early apoptotic cells at 2.5 uM measured after 48 hrs by Annexin V/PI analysis (reference value: 3.1%); type: functional
U-251 [21] = assay: Induction of apoptosis in human U-251 cells assessed as viable cells at 2.5 uM measured after 48 hrs by Annexin V/PI analysis (reference value: 96.2%); type: functional; details: read-out: Activity
U-251 [22] = assay: Induction of apoptosis in human U-251 cells assessed as necrotic cells at 1 uM measured after 48 hrs by Annexin V/PI analysis (reference value: 0%); type: functional
U-251 [23] = assay: Induction of apoptosis in human U-251 cells assessed as late apoptotic cells at 1 uM measured after 48 hrs by Annexin V/PI analysis (reference value: 0.7%); type: functional
U-251 [24] = assay: Induction of apoptosis in human U-251 cells assessed as early apoptotic cells at 1 uM measured after 48 hrs by Annexin V/PI analysis (reference value: 3.1%); type: functional
U-251 [25] = assay: Induction of apoptosis in human U-251 cells assessed as viable cells at 1 uM measured after 48 hrs by Annexin V/PI analysis (reference value: 96.2%); type: functional; details: read-out: Activity
U-251 [26] = assay: Decrease in SIRT1 gene expression in human U-251 cells at 5 uM measured after 48 hrs incubation by RT-qPCR analysis; type: functional, cell-based
U-251 [27] = assay: Decrease in SIRT1 protein expression in human U-251 cells at 1 to 5 uM by Western blot analysis; type: functional, cell-based; details: dose 1-5 µM
U-251 [28] = assay: Increase in acetylated p53 level in human U-251 cells at 1 to 5 uM by Western blot analysis; type: functional, cell-based; details: dose 1-5 µM
U-251 [29] = assay: Increase in BCL2 homologous antagonist/killer (Bak) expression human U-251 cells measured at 1 to 5 uM after 48 hrs by Western blot analysis; type: functional, cell-based; details: dose 1-5 µM
U-251 [30] = assay: Increase in caspase 3 expression human U-251 cells measured at 1 to 5 uM after 48 hrs by Western blot analysis; type: functional, cell-based; details: dose 1-5 µM
U-251 [31] = assay: Increase in acetylated p53 level in SIRT1 overexpressed human U-251 cells at 1 to 5 uM by Western blot analysis; type: functional, cell-based; details: dose 1-5 µM
U-251 [32] = assay: Anti-GBM effect in human U-251 cells xenografted in BALB/c mouse model assessed as inhibition of tumor growth at 60 mg/kg, ip treated for 5 weeks; type: functional, organism-based
U-251 [33] = assay: Anti-GBM effect in human U-251 cells xenografted in BALB/c mouse model assessed as reduction in number of Ki67-positive cells in the tumor at 60 mg/kg, ip treated for 5 weeks by immunohistochemical staining analysis; type: functional, organism-based
[34] = Toxicity in BALB/c mouse xenografted with human U-251 cells assessed as toxicity at 60 mg/kg, ip treated for 5 weeks; type: organism-based; details: in vivo, 840 h
[35] = Toxicity in BALB/c mouse xenografted with human U-251 cells assessed as body weight change at 60 mg/kg, ip treated for 5 weeks; type: organism-based; details: in vivo, 840 h
[36] = Toxicity in BALB/c mouse xenografted with human U-251 cells assessed as pathological changes in heart at 60 mg/kg, ip treated for 5 weeks by hematoxylin and eosin staining based assay; type: organism-based; details: in vivo, 840 h
[37] = Toxicity in BALB/c mouse xenografted with human U-251 cells assessed as pathological changes in liver at 60 mg/kg, ip treated for 5 weeks by hematoxylin and eosin staining based assay; type: organism-based; details: in vivo, 840 h
[38] = Toxicity in BALB/c mouse xenografted with human U-251 cells assessed as pathological changes in spleen at 60 mg/kg, ip treated for 5 weeks by hematoxylin and eosin staining based assay; type: organism-based; details: in vivo, 840 h
[39] = Toxicity in BALB/c mouse xenografted with human U-251 cells assessed as pathological changes in lung at 60 mg/kg, ip treated for 5 weeks by hematoxylin and eosin staining based assay; type: organism-based; details: in vivo, 840 h
[40] = Toxicity in BALB/c mouse xenografted with human U-251 cells assessed as pathological changes in kidney at 60 mg/kg, ip treated for 5 weeks by hematoxylin and eosin staining based assay; type: organism-based; details: in vivo, 840 h
U-87 MG [41] = assay: Antiproliferative activity against human U87 cells assessed as inhibition rate at 20 uM measured after 72 hrs by MTT assay relative to control; type: functional, U-87MG ATCC
U-251 [42] = assay: Antiproliferative activity against human U-251 cells assessed as inhibition rate at 20 uM measured after 72 hrs by MTT assay relative to control; type: functional

Structure (SMILES): O=C(/C=C/c1ccncc1)c1ccc(C(=O)N2CCN(Cc3ccccc3)C23COC3)cc1
IC50 (U-87 MG [1]): 3 µM | IC50 (U-251 [2]): 3.3 µM

Structure (SMILES): N#Cc1cccc(C(=O)/C=C/c2ccc(C(=O)N3CCN(Cc4ccccc4)C34COC4)cc2)c1
IC50 (U-87 MG [1]): 6.1 µM | IC50 (U-251 [2]): 5.4 µM

Structure (SMILES): COc1cc(C(=O)/C=C/c2cccc(C(=O)N3CCN(Cc4ccccc4)C34COC4)c2)cc(OC)c1OC
IC50 (U-87 MG [1]): 2.2 µM | IC50 (U-251 [2]): 1.1 µM

Structure (SMILES): COc1cc(C(=O)/C=C/c2ccccc2C(=O)N2CCN(Cc3ccccc3)C23COC3)cc(OC)c1OC
IC50 (U-87 MG [1]): 5.5 µM | IC50 (U-251 [2]): 4.9 µM

Structure (SMILES): COc1cc(C(=O)/C=C/c2ccc(C(=O)N3CCN(Cc4ccccc4)C34COC4)s2)cc(OC)c1OC
IC50 (U-87 MG [1]): 4 µM | IC50 (U-251 [2]): 2.1 µM

Structure (SMILES): O=C(/C=C/c1ccc(C(=O)N2CCN(Cc3ccccc3)C23COC3)cc1)c1ccsc1
IC50 (U-87 MG [1]): 8.5 µM | IC50 (U-251 [2]): 3.6 µM

Structure (SMILES): COc1ccc(C(=O)/C=C/c2ccc(C(=O)N3CCN(Cc4ccccc4)C34COC4)cc2)cc1
IC50 (U-87 MG [1]): 3.2 µM | IC50 (U-251 [2]): 2.4 µM

Structure (SMILES): COc1cc(/C=C/C(=O)c2ccc(C(=O)N3CCN(Cc4ccccc4)C34COC4)cc2)cc(OC)c1OC
IC50 (U-87 MG [1]): 3.7 µM | IC50 (U-251 [2]): 2.2 µM

Structure (SMILES): O=C(CBr)N1CCN(Cc2ccccc2)C12COC2
IC50 (U-87 MG [1]): 14.6 µM | IC50 (U-251 [2]): 13.9 µM | Papp [3]: 26.9 ×10⁻⁶ cm/s | inhibition at 20 µM (U-87 MG [41]): 74.3% | inhibition at 20 µM (U-251 [42]): 63.9%

Structure (SMILES): COc1cc(/C=C/C(=O)c2ccc(C(=O)N3CCN(Cc4ccccc4)C34COC4)s2)cc(OC)c1OC
IC50 (U-87 MG [1]): 2 µM | IC50 (U-251 [2]): 1.4 µM

Structure (SMILES): COc1ccc(C(=O)/C=C/c2ccc(C(=O)N3CCN(Cc4ccccc4)C34COC4)cc2)cc1OC
IC50 (U-87 MG [1]): 3.7 µM | IC50 (U-251 [2]): 1.8 µM

Structure (SMILES): O=C(/C=C/c1ccc(C(=O)N2CCN(Cc3ccccc3)C23COC3)cc1)c1ccccc1
IC50 (U-87 MG [1]): 5 µM | IC50 (U-251 [2]): 3 µM

Structure (SMILES): O=C(/C=C/c1ccc(C(=O)N2CCN(Cc3ccccc3)C23COC3)o1)c1ccncc1
IC50 (U-87 MG [1]): 10.5 µM | IC50 (U-251 [2]): 6 µM

The next lines start with results.

IC50 (U-87 MG [1]): 2.1 µM | IC50 (U-251 [2]): 0.9 µM | Papp [3]: 13.1 ×10⁻⁶ cm/s
Structure (SMILES): COc1cc(C(=O)/C=C/c2ccc(C(=O)N3CCN(Cc4ccccc4)C34COC4)cc2)cc(OC)c1OC
inhibition (U-251 [4]): Dose-Dependent Effect | Activity (U-251 [5]): inactive | Activity (U-251 [6]): inactive | Activity (U-251 [7]): inactive | Activity (U-251 [8]): inactive | Activity (U-251 [9]): inactive | Activity (U-251 [10]): inactive | Activity (U-251 [11]): Dose-Dependent Effect | Activity (U-251 [12]): Dose-Dependent Effect | Activity (U-251 [13]): Dose-Dependent Effect | Activity (U-251 [14]): 0.1% | Activity (U-251 [15]): 67.5% | Activity (U-251 [16]): 17.7% | viability at 5 µM (U-251 [17]): 14.7% | Activity (U-251 [18]): 0.2% | Activity (U-251 [19]): 9.2% | Activity (U-251 [20]): 16.4% | viability at 2.5 µM (U-251 [21]): 74.2% | Activity (U-251 [22]): 0.2% | Activity (U-251 [23]): 8.2% | Activity (U-251 [24]): 11.8% | viability at 1 µM (U-251 [25]): 79.8% | Activity (U-251 [26]): Active | Activity (U-251 [27]): Active | Activity (U-251 [28]): Active | Activity (U-251 [29]): inactive | Activity (U-251 [30]): inactive | Activity (U-251 [31]): inactive | Activity (U-251 [32]): Active | Activity (U-251 [33]): Active | Activity [34]: Non-Toxic | Activity [35]: Non-Toxic | Activity [36]: Non-Toxic | Activity [37]: Non-Toxic | Activity [38]: Non-Toxic | Activity [39]: Non-Toxic | Activity [40]: Non-Toxic

IC50 (U-87 MG [1]): 4.4 µM | IC50 (U-251 [2]): 1.6 µM
Structure (SMILES): COc1ccc(C(=O)/C=C/c2cccc(C(=O)N3CCN(Cc4ccccc4)C34COC4)c2)cc1OC

IC50 (U-87 MG [1]): 5.3 µM | IC50 (U-251 [2]): 5.3 µM
Structure (SMILES): O=C(/C=C/c1ccc(C(=O)N2CCN(Cc3ccccc3)C23COC3)cc1)c1ccncc1

IC50 (U-87 MG [1]): 5.2 µM | IC50 (U-251 [2]): 4.2 µM
Structure (SMILES): O=C(/C=C/c1ccc(C(=O)N2CCN(Cc3ccccc3)C23COC3)cc1)c1ccccn1

IC50 (U-87 MG [1]): 10.4 µM | IC50 (U-251 [2]): 7.4 µM
Structure (SMILES): O=C(/C=C/c1ccccc1C(=O)N1CCN(Cc2ccccc2)C12COC2)c1ccccc1
